Entries after “also recorded” stand apart in the source; their conditions may differ. Bridge positions count the residues as written; N and C are the ends. Ends that are not written are not given here. Peptide text beside a SMILES is read from it.
B1: FcLoop-L2-ShK-L2: ShK inserted into the human IgG1 Fc loop with 2-Gly linkers (protein)
chain: MDKTHTCPPCPAPELLGGPSVFLFPPKPKDTLMISRTPEVTCVVVDVSHEDPEVKFNWYVDGVEVHNAKTKPREEQYNSTYRVVSVLTVLHQDWLNGKEYKCKVSNKALPAPIEKTISKAKGQPREPQVYTLPPSRDELGGRSCIDTIPKSRCTAFQCKHSMKYRLSFCRKTCGTCGGTKNQVSLTCLVKGFYPSDIAVEWESNGQPENNYKTTPPVLDSDGSFFLYSKLTVDKSRWQQGNVFSCSVMHEALHNHYTQKSLSLSPGK
modifications: Definition of Artificial Sequence: Synthetic protein
B2: MGGHHHHHHGGGPSVFLFPPKPKDTLMISRTPEVTCVVVDVSHEDPEVKFNWYVDGVEVHNAKTKPREEQYNSTYRVVSVLTVLHQDWLNGKEYKCKVSNKALPAPIEKTISGGGGSGGGGSGVIINVKCKISRQCLEPCKKAGMRFGKCMNGKCHCTPK (protein)
chain: MGGHHHHHHGGGPSVFLFPPKPKDTLMISRTPEVTCVVVDVSHEDPEVKFNWYVDGVEVHNAKTKPREEQYNSTYRVVSVLTVLHQDWLNGKEYKCKVSNKALPAPIEKTISGGGGSGGGGSGVIINVKCKISRQCLEPCKKAGMRFGKCMNGKCHCTPK
B3: FcLoop-L2-OsK1-L2: OsK1 inserted into the human IgG1 Fc loop with 2-Gly linkers (protein)
chain: MDKTHTCPPCPAPELLGGPSVFLFPPKPKDTLMISRTPEVTCVVVDVSHEDPEVKFNWYVDGVEVHNAKTKPREEQYNSTYRVVSVLTVLHQDWLNGKEYKCKVSNKALPAPIEKTISKAKGQPREPQVYTLPPSRDELGGGVIINVKCKISRQCLEPCKKAGMRFGKCMNGKCHCTPKGGTKNQVSLTCLVKGFYPSDIAVEWESNGQPENNYKTTPPVLDSDGSFFLYSKLTVDKSRWQQGNVFSCSVMHEALHNHYTQKSLSLSPGK
modifications: Definition of Artificial Sequence: Synthetic protein

How the values were obtained:
[1] = test system: IFN-g production in human whole blood; assay type: cell-based; conditions: for IC50: read-out: WB/IFNg (IC50)
[2] = test system: CD40L on T cells in human whole blood; assay type: cell-based
[3] = test system: IL-2R on T cells in human whole blood; assay type: cell-based
[4] = test system: IL-2 production in human whole blood; conditions: for IC50: read-out: WB/IL-2 (IC50)
human Kv1.3 (CHO) = target: T1, human Kv1.3 (CHO) (Homo sapiens, UniProt P22001); assay type: cell-based
T1 construct: expressed in transfected cells; host or cells: CHO

human Kv1.1 (HEK293) = target: T2, human Kv1.1 (HEK293) (Homo sapiens, UniProt Q09470); assay type: cell-based
T2 construct: expressed in transfected cells; host or cells: HEK293

human Kv1.3 channel = human Kv1.3 channel (Homo sapiens, UniProt P22001); assay type: cell-based
Sequence of human Kv1.3 channel (P22001 whole entry): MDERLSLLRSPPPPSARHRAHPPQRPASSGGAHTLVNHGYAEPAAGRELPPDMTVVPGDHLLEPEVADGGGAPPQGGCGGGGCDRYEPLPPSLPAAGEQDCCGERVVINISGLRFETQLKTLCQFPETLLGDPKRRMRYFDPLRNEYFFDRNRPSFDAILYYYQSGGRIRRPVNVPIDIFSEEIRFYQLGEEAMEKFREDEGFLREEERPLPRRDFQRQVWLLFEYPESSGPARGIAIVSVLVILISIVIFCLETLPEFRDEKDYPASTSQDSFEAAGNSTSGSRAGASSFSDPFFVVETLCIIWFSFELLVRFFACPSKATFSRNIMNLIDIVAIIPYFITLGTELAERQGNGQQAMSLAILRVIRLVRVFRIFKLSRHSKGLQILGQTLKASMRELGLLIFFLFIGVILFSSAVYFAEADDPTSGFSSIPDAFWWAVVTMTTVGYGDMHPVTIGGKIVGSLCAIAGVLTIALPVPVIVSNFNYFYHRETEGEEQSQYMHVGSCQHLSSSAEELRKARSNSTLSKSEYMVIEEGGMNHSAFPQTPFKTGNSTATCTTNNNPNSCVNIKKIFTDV

T2 sequence (Q09470 whole entry): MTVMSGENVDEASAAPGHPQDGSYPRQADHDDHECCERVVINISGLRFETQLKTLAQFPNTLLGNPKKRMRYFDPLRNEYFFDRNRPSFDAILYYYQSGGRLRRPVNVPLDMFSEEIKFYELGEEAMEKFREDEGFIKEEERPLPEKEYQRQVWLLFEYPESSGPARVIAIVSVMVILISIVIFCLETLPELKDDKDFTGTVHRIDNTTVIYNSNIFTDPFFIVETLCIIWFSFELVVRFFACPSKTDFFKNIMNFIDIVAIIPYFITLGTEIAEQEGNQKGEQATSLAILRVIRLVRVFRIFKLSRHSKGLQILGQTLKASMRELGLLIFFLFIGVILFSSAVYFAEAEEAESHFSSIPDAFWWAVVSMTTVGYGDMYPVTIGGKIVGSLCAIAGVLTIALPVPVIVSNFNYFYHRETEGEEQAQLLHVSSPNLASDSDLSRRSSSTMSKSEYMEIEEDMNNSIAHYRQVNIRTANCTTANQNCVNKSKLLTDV
T1 sequence (P22001 whole entry): as the sequence (P22001 whole entry) above

Molecule	IC50 [1] [nM]	IC50 [4] [nM]	other results
Fc-L10-ShK[2-35]: human IgG1 Fc fused via 10 amino acid linker to ShK[2-35]	–	–	thapsigargin-induced IFN-g production (in words) [1]: suppressed; also recorded: blocked; thapsigargin-induced upregulation of CD40L on T cells (in words) [2]: blocked; thapsigargin-induced upregulation of the IL-2R on T cells (in words) [3]: blocked; stability in whole blood [4]: stable in whole blood at 37 °C for up to 48 hours
GVIINVKCKISRQCLKPCKDAGMRFGKCMNGKCACTPK [compound 4990]	26.6	65.5	–
CC[C@H](C)[C@@H]1NC(=O)[C@H](CCCCN)NC(=O)[C@@H](NC(=O)[C@H](CCCCN)NC(=O)[C@@H](NC(=O)[C@H](CC(N)=O)NC(=O)[C@@H](NC(=O)[C@@H](NC(=O)[C@@H](NC(=O)CN)C(C)C)[C@@H](C)CC)[C@@H](C)CC)C(C)C)CSSC[C@@H]2NC(=O)[C@H](CCCCN)NC(=O)CNC(=O)[C@H](Cc3ccccc3)NC(=O)[C@H](CCCNC(=N)N)NC(=O)[C@H](CCSC)NC(=O)CNC(=O)[C@H](C)NC(=O)[C@H](CCCCN)NC(=O)[C@H](CCCCN)NC(=O)[C@@H]3CSSC[C@@H](C(=O)N[C@H](C(=O)N4CCC[C@H]4C(=O)N[C@@H](CCCCN)C(=O)O)[C@@H](C)O)NC(=O)[C@H](Cc4c[nH]cn4)NC(=O)[C@H](CSSC[C@H](NC(=O)[C@H](CCC(N)=O)NC(=O)[C@H](CCCNC(=N)N)NC(=O)[C@H](CO)NC1=O)C(=O)N[C@@H](CC(C)C)C(=O)N[C@@H](CCC(=O)O)C(=O)N1CCC[C@H]1C(=O)N3)NC(=O)[C@H](CCCCN)NC(=O)CNC(=O)[C@H](CC(N)=O)NC(=O)[C@H](C)NC2=O [OSK1[Ala-29]] (H-GVIINVKCKISRQCLEPCKKAGMRFGKCANGKCHCTPK-OH; disulfide 8-28, 14-33, 18-35)	–	–	inhibition of the Kv1.3 current by IonWorks (in words) (human Kv1.3 (CHO)): potent inhibition of the Kv1.3 current; selectivity over Kv1.1 by IonWorks (in words) (human Kv1.1 (HEK293)): improved selectivity over Kv1.1; potency relative to cyclosporin A in blocking the cytokine response [4]: several orders of magnitude more potent
SEQ ID No: 4989: OSK1 analog without beta strand 1 (labeled des 1-7), Table 42 (CKISRQCLKPCKDAGMRFGKCMNGKCHC-NH2; ends and bridges not checked)	–	–	blockade of the whole blood cytokine response (IL-2, IFNg), in words [4]: still retain activity in blocking inflammation
IbTx: BKCa channel inhibitor peptide, Bachem (QFTDVDCSVSKECWSVCKDLFGVDRGKCMGKKCRCYQ; Definition of Artificial Sequence: Synthetic peptide) [reference compound]	–	–	thapsigargin-induced IFN-g production (in words) [1]: no significant activity; thapsigargin-induced upregulation of CD40L on T cells (in words) [2]: no significant activity; thapsigargin-induced upregulation of the IL-2R on T cells (in words) [3]: no significant activity; thapsigargin-induced IL-2 production (in words) [4]: no significant activity
Fc-L-KTX1: bacterially expressed Fc-linker-KTX1 peptibody	–	–	block of human Kv1.3 current (in words) (human Kv1.3 channel): concentration dependent block
GVIINVKCKISRQCLKPCKDAGMRFGKCMNGKCHCYPK [compound 298]	0.923	0.639	–
GVIINVKCKISRQCLKPCKDAGMRFGKCMNGKCHCTPK [compound 296]	1.32	1.58	–
GIINVKCKISAQCLKPCRDAGMRFGKCMNGKCACTPK [compound 4916]	2.24	1.5	–
GGGGSGVIINVKCKISRQCLEPCKKAGMRFGKCMNGKCHCTPK [compound 1395]	2.2	1.36	–
GVIINVKCKISRQCLKPCKDAGMRFGKCMNGKCHCGGG [compound 1274]	3.64	2.64	–
GVIINVKCKISAQCLKPCKDAGMRFGKCMNGKCHCTPK [compound 1392]	0.092	0.041	–
GVIINVKCKISRQCLKPCKDAGMRFGKCMNGKCHC [compound 1396]	6.99	3.94	–
B1	–	–	IC50 values, whole blood cytokine response [4]: pM range; blockade of the whole blood cytokine response (IL-2, IFNg), in words [4]: potent blockade of the whole blood cytokine response
B2	55.2	38.5	–
B3	–	–	IC50 values, whole blood cytokine response [4]: pM range; blockade of the whole blood cytokine response (IL-2, IFNg), in words [4]: potent blockade of the whole blood cytokine response
